Data taken from BindingDB's records for doi:10.1021/bi900236k (University of Thessaly, 2009).

Target: T1, Poly(A)-specific ribonuclease PARN (Homo sapiens, UniProt O95453)
T1 sequence (O95453 whole entry): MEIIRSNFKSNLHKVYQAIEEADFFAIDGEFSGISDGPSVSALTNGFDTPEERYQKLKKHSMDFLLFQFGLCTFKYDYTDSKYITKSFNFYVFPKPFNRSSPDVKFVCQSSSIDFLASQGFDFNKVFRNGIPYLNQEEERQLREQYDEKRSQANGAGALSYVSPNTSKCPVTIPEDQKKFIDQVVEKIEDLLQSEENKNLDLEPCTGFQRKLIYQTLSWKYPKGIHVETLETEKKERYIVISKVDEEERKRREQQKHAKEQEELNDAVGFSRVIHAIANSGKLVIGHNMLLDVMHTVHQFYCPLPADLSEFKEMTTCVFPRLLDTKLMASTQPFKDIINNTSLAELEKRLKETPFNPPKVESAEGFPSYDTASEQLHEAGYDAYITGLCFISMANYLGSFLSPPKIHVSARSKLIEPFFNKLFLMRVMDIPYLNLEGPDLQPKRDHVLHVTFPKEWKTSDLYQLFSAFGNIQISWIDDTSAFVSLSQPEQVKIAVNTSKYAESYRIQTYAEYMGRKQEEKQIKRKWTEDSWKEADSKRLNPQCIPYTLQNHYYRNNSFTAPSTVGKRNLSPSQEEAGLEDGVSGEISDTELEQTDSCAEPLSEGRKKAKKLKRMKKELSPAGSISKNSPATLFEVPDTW
Assay: PARN Activity Assay
Experimental: The enzymatic activity was determined by the methylene blue assay.

Compared with `O=C(Nc1ncnc2c1ncn2C1OC(O)C(O)C(F)C1O)c1ccccc1` (stereo not drawn) [Nucleoside, A2], `O=C(Nc1ccn(C2OC(CO)C(O)C(F)C2O)c(=O)n1)c1ccccc1` (stereo not drawn) [Nucleoside, A6] is 2.4-fold lower in Ki: 510 µM for the first, 210 µM for the second. The second binds more tightly here.

With `Nc1ccn(C2OC(CO)C(O)C(F)C2O)c(=O)n1` (stereo not drawn) [Nucleoside, C6] the Ki was 645 µM.
